Experimental data: patent publication US20190201541A1, “ANTI-CD22 ANTIBODY-MAYTANSINE CONJUGATES, COMBINATIONS, AND METHODS OF USE THEREOF” (Triphase Accelerator U.S. Corporation, priority 2017, published 2019)

Legend:
Type in all cases: cell-based
[1] = test system: Ramos cells; experiment: In vitro cytotoxicity, Cell Titer-Glo, 5 d; conditions: Homo sapiens, 120 h, 5 d incubation, read-out: IC50 against Ramos cells
Protocol: (§1) The CD22-positive B-cell lymphoma cell lines, Ramos and WSU-DLCL2, were obtained from the ATCC and DSMZ cell banks, respectively. The cells were maintained in RPMI-1640 medium (Cellgro, Manassas, Va.) supplemented with 10% fetal bovine serum (Invitrogen, Grand Island, N.Y.) and Glutamax (Invitrogen). 24 h prior to plating, cells were passaged to ensure log-phase growth. On the day of plating, 5000 cells/well were seeded onto 96-well plates in 90 μL normal growth medium supplemented with […] and 10 µg/mL streptomycin (Cellgro). Cells were treated at various concentrations with 10 μL of diluted analytes, and the plates were incubated at 37° C. in an atmosphere of 5% CO2. After 5 d, 100 μL/well of Cell Titer-Glo reagent (Promega, Madison, Wis.) was added, and luminescence was measured using a Molecular Devices SpectraMax M5 plate reader. GraphPad Prism software was used for data analysis.

[2] = test system: WSU-DLCL2 cells; experiment: In vitro cytotoxicity, Cell Titer-Glo, 5 d; conditions: Homo sapiens, WSUDLCL2, 120 h; 5 d incubation; read-out: IC50 against WSU-DLCL2 cells
Protocol: as §1

[3] = test system: Ramos cells engineered to express MDR1 (MDR1+); experiment: In vitro cytotoxicity assay on MDR1-expressing cells; conditions: versus wild-type cells
Protocol: (§2) MDR1 (ABCB1) cDNA was obtained from Sino Biological and cloned into a pEF plasmid with a hygromycin selection marker. An AMAXA Nucleofector™ instrument was used to electroporate Ramos (ATCC CRL-1923) and WSU-DLCL2 (DSMZ ACC 575) cells according to the manufacturer's instructions. After selection with hygromycin (Invitrogen 10687010), the pools were enriched with paclitaxel treatment (25 nM for up to 10 days) to further select cells with functional MDR1. The resulting cells were maintained under hygromycin selection in RPMI (Gibco 21870-092) supplemented with 10% fetal bovine serum (FBS) and 1× GlutaMax (Gibco 35050-079).
(§3) Cell lines were plated in 96-well plates (Costar 3610) at a density of 5×10^4 cells/well in 100 μL of growth media and allowed to rest for 5 h. Serial dilution of test samples was performed in RPMI at 6× the final concentration and 20 μL was added to the cells. After incubation at 37° C. with 5% CO2 for 5 days, viability was measured using a Promega CellTiter 96® AQueous One Solution Cell Proliferation Assay (G3581) according to the manufacturer's instructions. GI50 curves were calculated in GraphPad Prism using the ADC's drug-to-antibody ratio (DAR) value to normalize the dose to the payload concentration.

[4] = test system: WSU-DLCL2 cells engineered to express MDR1 (MDR1+); experiment: as above
Protocol: as §2, §3

`COc1cc2cc(c1Cl)N(C)C(=O)C[C@H](OC(=O)[C@H](C)N(C)C(C)=O)[C@]1(C)O[C@H]1[C@H](C)[C@@H]1C[C@@](O)(NC(=O)O1)[C@H](OC)/C=C/C=C(\C)C2` [free maytansine, maytansine] was tested, and the IC50 [1] was 0.04 nM, the IC50 [2] was 0.086 nM and the “loss of efficacy in MDR1+ Ramos cells” value [3] was roughly 10 fold. For the same molecule, the “potency in MDR1+ WSU-DLCL2 cells on cotreatment with cyclosporin (MDR1 inhibitor)” value ([4]; cyclosporin cotreatment) was “restored the original potency” and the “loss of efficacy in MDR1+ WSU-DLCL2 cells” value ([4]; versus wild-type cells) was roughly 10 fold.
